Measurements as given in publication PMC6421026, “Interaction of Anticancer Drugs with Human Organic Anion Transporter hOAT4” (Journal of Oncology, 2019).
Structures can show the parent of a compound that is named as a salt.

How the values were obtained:
[1] = target: T1, human organic anion transporter 4 (hOAT4) (Homo sapiens, UniProt Q9NSA0); experiment: inhibition of [3H]-estrone sulfate uptake in stable hOAT4-expressing COS-7 cells, Dixon plot (IC50 […]); trans-inhibition; format: cell-based
T1 construct: gene SLC22A11
T1 sequence (Q9NSA0 1-550): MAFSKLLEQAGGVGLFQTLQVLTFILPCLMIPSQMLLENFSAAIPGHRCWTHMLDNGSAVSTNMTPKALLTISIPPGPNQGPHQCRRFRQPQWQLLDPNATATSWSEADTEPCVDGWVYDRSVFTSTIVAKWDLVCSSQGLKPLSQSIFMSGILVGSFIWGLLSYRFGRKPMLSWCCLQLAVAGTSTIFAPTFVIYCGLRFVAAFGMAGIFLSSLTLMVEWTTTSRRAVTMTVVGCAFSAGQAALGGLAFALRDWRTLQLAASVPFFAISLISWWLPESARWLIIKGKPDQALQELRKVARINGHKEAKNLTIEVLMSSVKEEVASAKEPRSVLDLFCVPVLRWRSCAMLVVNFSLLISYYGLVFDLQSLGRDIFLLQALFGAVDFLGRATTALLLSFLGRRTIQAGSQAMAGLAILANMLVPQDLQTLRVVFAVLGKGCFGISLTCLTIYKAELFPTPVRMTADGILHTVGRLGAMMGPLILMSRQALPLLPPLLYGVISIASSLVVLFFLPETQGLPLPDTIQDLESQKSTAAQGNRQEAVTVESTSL

[2] = target: T1, human organic anion transporter 4 (hOAT4); experiment: inhibition of [3H]-estrone sulfate uptake in stable hOAT4-expressing COS-7 cells, Dixon plot (IC50 […]); format: cell-based

CC(C)(C)c1nc(-c2cccc(NS(=O)(=O)c3c(F)cccc3F)c2F)c(-c2ccnc(N)n2)s1 [Dab, dabrafenib mesylate]
Ki [1]: 4.26 µM

COc1cccc2c1C(=O)c1c(O)c3c(c(O)c1C2=O)C[C@@](O)(C(=O)CO)C[C@@H]3O[C@H]1C[C@H](N)[C@@H](O)[C@H](C)O1 [epirubicin hydrochloride]
Ki [2]: 3 µM
